SMILES strings stand for the structures.

Data set [1] can be described thus: Shake-flask logD7.4 n-octanol/PBS. Type of data set: physicochemical. Conditions: n-octanol/PBS pH 7.4, shake-flask, room temperature. Here is the method:
A PBS (pH 7.4) solution was saturated with n-octanol, and n-octanol was saturated with PBS (pH 7.4) by vigorous shaking, followed by equilibration for at least 24 h to ensure complete phase separation. The reference compound 4-chloro-6,7-bis(2-methoxyethoxy)quinazoline and analogs 1–7 were dissolved in the octanol phase (previously saturated with PBS), and equal volumes of the aqueous phase (previously saturated with octanol) were added. Final assay solutions were prepared at 10 μM by diluting 2 μL of a 5 mM stock solution into 1 mL of total volume. The biphasic mixtures were shaken for 24 h at room temperature. After equilibration, both the octanolic and aqueous phases were analyzed by UV–visible spectrophotometry using a Shimadzu UV-1603. […] LogD7.4 values were calculated as […]. Each determination was performed in triplicate. Regression analyses and curve fittings were performed using GraphPad Prism 8.0 software (GraphPad Software Inc., LaJolla, CA, USA).

Data set [2] has as its system Mix of primary glial cell culture. On the set-up: method as in earlier work. The settings on record: mix of primary glial cell culture (healthy cells); errors omitted; ref 19 (compounds 8 and 9: ref 13); cited from earlier work.
For a further data set, the system named is C6. On the set-up: method as in earlier work. Conditions: C6 glioma cells; errors omitted; ref 19 (compounds 8 and 9: ref 13); cited from earlier work.
The subject of another data set is F98. On the set-up: method as in earlier work. Conditions: F98 rat glioma cells; errors omitted; ref 19 (compounds 8 and 9: ref 13); cited from earlier work.
A further data set relates to U87 MG. On the set-up: method as in earlier work. The settings on record: human U87 MG glioma cells; errors omitted; ref 19 (compounds 8 and 9: ref 13); cited from earlier work.

As a reminder, the logD is the decadic logarithm of the distribution of all forms, ionised or not, between an organic phase and buffer at a given pH. Lower therefore signals lower lipophilicity. In the case of `COCCOc1cc2ncnc(Cl)c2cc1OCCOC` [4-chloro-6,7-bis(2-methoxyethoxy)quinazoline], the logD at 24 h in data set [1] was determined as 1.02.

As a reminder, the IC50 is the concentration needed to halve the response being measured. As to `C#Cc1cccc(Nc2ncnc3cc(OCCOC)c(OCCOC)cc23)c1` [Erl, erlotinib], the half-maximal inhibitory concentration (IC50) was over 100 µM in data set [2], over 100 µM with C6, over 100 µM with F98 and 63 µM in the data set on U87 MG.

Source of the values: publication PMC12655621 (Pharmaceuticals, 2025).
